The target of assay [1] is T1, mouse homolog of OSGPR116 (Mus musculus, UniProt Q7TQP3).
T1 construct: expressed in transfected cells; host or cells: engineered yeast (GPA1 and Ste3 deleted, G-alpha chimera, Fus1p-LacZ reporters)
T1 sequence (Q7TQP3 1-335): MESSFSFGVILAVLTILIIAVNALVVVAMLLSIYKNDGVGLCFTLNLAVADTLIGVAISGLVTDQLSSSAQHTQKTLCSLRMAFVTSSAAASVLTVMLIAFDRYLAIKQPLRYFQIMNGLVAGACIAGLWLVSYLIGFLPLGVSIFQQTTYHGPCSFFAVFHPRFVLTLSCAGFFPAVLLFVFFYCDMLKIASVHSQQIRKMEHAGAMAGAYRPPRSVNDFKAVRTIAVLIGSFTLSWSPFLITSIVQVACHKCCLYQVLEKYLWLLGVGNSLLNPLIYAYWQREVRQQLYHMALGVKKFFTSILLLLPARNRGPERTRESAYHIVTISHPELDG
The experiment in a line: Yeast cell-based Fus1p-LacZ reporter assay, mouse OSGPR116. As to conditions: mouse isoform, FIG. 9b; Galpha-q5 yeast, 4h incubation. From the text: (§1) The yeast cell-based reporter assays have previously been described in the literature (e.g. see Miret J. J., et. al. (2002) J. Biol. Chem. 277:6881–6887; Campbell R. M., et. al. (1999) Bioorg Med. Chem. Lett. 9:2413–2418; King K., et. al. (1990) Science. 250:121–123); WO 99/14344; WO 00/12704; and U.S. Pat. No. 6,100,042). Briefly, yeast cells have been engineered such that the endogenous yeast G-alpha (GPA1) has been deleted and replaced with G-protein chimeras constructed using multiple techniques. Additionally the endogenous yeast alpha-cell GPCR, Ste3 has been deleted to allow for a […] expression of a mammalian GPCR of choice. In the yeast, elements of the pheromone signaling transduction pathway, which are conserved in eukaryotic cells (for example, the mitogen-activated protein kinase pathway), drive the expression of Fus1. By placing β-galactosidase (LacZ) under the control of the Fus1 promoter (Fus1p), a system has been developed whereby receptor activation leads to an enzymatic read-out. Different yeast strains (e.g. FIG. 10) denote the presence of different G-alpha chimeras (see “yeast reporter assays” in Results section below for definitions).
(§2) Yeast cells are transformed by an adaptation of the Lithium acetate method described by Agatep et.al. (Agatep, R., et. al. (1998) Transformation of Saccharomyces cerevisiae by the lithium acetate/single-stranded carrier DNA/polyethylene glycol (LiAc/ss-DNA/PEG) protocol. Technical Tips Online, Trends Journals, Elsevier). Briefly, yeast cells are grown overnight on yeast tryptone plates (YT). Carrier single-stranded DNA (10 μg), 2 μg of each of two Fus1p-LacZ reporter plasmids (one with URA selection marker and one with TRP), 2 μg of OSGPR116 in yeast expression vector (2μ origin of replication) and a lithium acetate/polyethylene glycol/TE buffer is pipetted into an Epindorf tube. The yeast expression plasmid containing the receptor/no receptor control has a LEU marker. Yeast cells are inoculated into this mixture and the reaction proceeds at 30° C. for 60 minutes. The yeast cells are then heat-shocked at 42° C. for 15 minutes. The cells are then washed and spread on selection plates. The selection plates are synthetic defined yeast media minus LEU, URA and TRP (SD-LUT). After incubating at 30° C. for 2–3 days, colonies that grow on the selection plates are then tested in the LacZ assay.
(§3) In order to perform fluorometric enzyme assays for β-galactosidase, yeast cells were grown overnight in liquid SD-LUT media to an unsaturated concentration (i.e. the cells are still dividing and have not yet reached stationary phase). They are diluted in fresh media to an optimal assay concentration and 90 μL of yeast cells were added to 96-well black polystyrene plates (Costar). Compounds, dissolved in ethanol and diluted in a 1% BSA solution to 10× concentration, were added to the plates and the yeast are placed at 30° C. for 4h. After 4h, the substrate for the β-galactosidase is added to each well. The substrate may yield a fluorescent or calorimetric read-out upon the activity of the β-galactosidase. In these experiments, Fluorescein di (β-D-galactopyranoside) was used (FDG), a substrate for the enzyme that releases fluorescein, allowing a fluorometric read-out. 20 μL of 500 uM FDG was used. After incubation of the cells with the substrate for 30–60 mins, 20 μL of 1M sodium carbonate is added to terminate the reaction and enhance the fluorescent signal. The plates were then read in a fluorometer at 485/535 nm. As an alternate read-out system, the yeast are also engineered with a Fus1p-HIS gene which means that activation of the receptor can also be measured through the growth of the yeast in a […] deficient media.

The subject of assay [2] is vector transformed yeast cells. The experiment in a line: Yeast reporter assay, vector transformed (no receptor) control yeast. The class given is cell-based.
From the text: as §1, §2, §3
(In general: A reporter such as luciferase makes a cellular process visible.)

Assay [3] deals with T2, OSGPR116 (Homo sapiens, UniProt Q8TDV5).
T2 sequence (Q8TDV5 1-335): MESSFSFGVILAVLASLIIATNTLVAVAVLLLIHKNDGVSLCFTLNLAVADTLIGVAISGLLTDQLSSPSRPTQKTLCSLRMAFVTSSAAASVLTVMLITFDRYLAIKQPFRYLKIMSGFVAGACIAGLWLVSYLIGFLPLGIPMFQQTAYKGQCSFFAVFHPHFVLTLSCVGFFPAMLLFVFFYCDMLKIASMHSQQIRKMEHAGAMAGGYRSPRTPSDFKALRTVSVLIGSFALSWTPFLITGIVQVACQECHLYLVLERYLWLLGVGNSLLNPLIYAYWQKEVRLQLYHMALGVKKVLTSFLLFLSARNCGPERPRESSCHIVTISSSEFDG
The experiment in a line: Adenylate cyclase (alpha-screen cAMP) assay in ASPC-1 cells endogenously expressing OSGPR116. The class given is cell-based. As to conditions: FIG. 11. As to the method:
The adenylate cyclase assay was performed with an alpha-screen cAMP assay kit […]. The manufacturers protocol was followed. Briefly, ASPC-1 cells, known to endogenously express moderate levels of OSGPR116 were […] from the culture flask using a lysis buffer (0.1% BSA in PBS containing 20 μM rolipram and 0.54% TWEEN20), washed with PBS and diluted in assay buffer (0.1% BSA in PBS containing 20 μM rolipram) to a concentration of 600,000 cells/mL. White polystyrene 96-well plates were used for the assay. […] The plate was incubated at room temperature 30 min. For the standard cAMP curve used to quantify the data, 5 μl water+5 μl 4×cAMP in assay buffer+5 μl acceptor beads+5 μl cells were added to the plate. To terminate the assay, 10 ul of the donor beads solution was added (30 nM biotin-cAMP/60 μg streptavidin-donor beads in 1 mL lysis buffer). The plates were incubated overnight, protected from light. A Fusion-αHT counter was used to read the plates according to the kit's instructions.

A further assay concerns Wistar rats. Briefly: In vivo acute feeding experiment in fasted rats. The arrangement: species or system rat. Conditions: overnight fasted Wistar rats, 1 and 2h post-treatment, FIG. 13. As to the method: For the acute feeding experiment, the experimental conditions used as closely as possible replicated those of de Fonseca, F. R. et.al. (2001) Nature, 414:209–212. […] Oleoylethanolamide (3 and 10 mg/kg i.p.) or vehicle was administered 15 minutes prior to the availability of food. Oleoylethanolamide was dissolved in dimethylsulfoxide (DMSO) and administered in a 70% DMSO in sterile water solution. Following presentation of food, food intake (grams) was measured at 1, 2, 3 and 4h intervals and the results compared to a normal feeding and vehicle treated control group.

The target of assay [4] is T2, OSGPR116. Briefly: Yeast cell-based Fus1p-LacZ reporter assay, human OSGPR116. Also noted: expressed in transfected cells; host or cells: engineered yeast (GPA1 and Ste3 deleted, G-alpha chimera, Fus1p-LacZ reporters). As to conditions: for rank of efficacy and potency among compounds tested: yeast-based reporter assay.
From the text: as §1, §2, §3

Assay [5] has as its target T2, OSGPR116. Briefly: Yeast reporter assay in strains with different G-alpha chimeras. The class given is cell-based. The arrangement: expressed in transfected cells; host or cells: yeast strains 13397, 13393, 15070, 18043, 20202, 10151 with different G-alpha chimeras. Conditions: G-alpha-q (13397), G-alpha-i (13393, 15070, 18043), G-alpha-s (20202, 10151) strains; FIG. 10. From the text:
The yeast cell-based reporter assays have previously been described in the literature (e.g. see Miret J. J., et. al. (2002) J. Biol. Chem. 277:6881–6887; Campbell R. M., et. al. (1999) Bioorg Med. Chem. Lett. 9:2413–2418; King K., et. al. (1990) Science. 250:121–123); WO 99/14344; WO 00/12704; and U.S. Pat. No. 6,100,042). Briefly, yeast cells have been engineered such that the endogenous yeast G-alpha (GPA1) has been deleted and replaced with G-protein chimeras constructed using multiple techniques. Additionally the endogenous yeast alpha-cell GPCR, Ste3 has been deleted to allow for a […] expression of a mammalian GPCR of choice. […] By placing β-galactosidase (LacZ) under the control of the Fus1 promoter (Fus1p), a system has been developed whereby receptor activation leads to an enzymatic read-out. […]
In order to perform fluorometric enzyme assays for β-galactosidase, yeast cells were grown overnight in liquid SD-LUT media to an unsaturated concentration (i.e. the cells are still dividing and have not yet reached stationary phase). […] The substrate may yield a fluorescent or calorimetric read-out upon the activity of the β-galactosidase. In these experiments, Fluorescein di (β-D-galactopyranoside) was used (FDG), a substrate for the enzyme that releases fluorescein, allowing a fluorometric read-out. […] The plates were then read in a fluorometer at 485/535 nm. […]

The structures appear in SMILES notation.

Turning to `CCCCCCCC/C=C\CCCCCCCC(=O)NCCO` [oleoyl ethanolamide], the “effect on fluorescence (β-galactosidase activity) in yeast transformed with OSGPR116 receptor” value is listed as “increase in fluorescence” in assay [1] and “increase in fluorescence” at OSGPR116 [4] (human isoform, FIG. 9a, Galpha-q5 yeast, 4h incubation). Further, in assay [2] (G-alpha chimera strains, FIG. 10), the “response of vector controls in the same yeast strains” value is “did not respond”. For the same compound, the “increase in fluorescence in vector transformed cells” value in assay [2] (yeast without OSGPR116 expression, FIGS. 9a, 9b) is recorded as “not”. On OSGPR116 [3] (10 μM compound with forskolin (10 μM)), the “forskolin-stimulated cAMP accumulation” value was “inhibition”. In addition, at OSGPR116 [3] (10 μM, without forskolin), the cAMP production entry is “did not cause an increase”. The “feeding (food intake)” value in the assay on Wistar rats (3 mg/kg i.p.) and in the assay with Wistar rats (10 mg/kg i.p.) was “inhibition of feeding” each time. For the same compound, the “rank of efficacy and potency among compounds tested” value was “most efficacious and potent” on OSGPR116 [4] (listed as Oleoyl ethanolamide); “optimal endogenously produced agonist” on OSGPR116 [4] (listed as oleoylethanolamide). For the same compound, the “response in OSGPR116-transformed yeast with G-alpha chimeras” value on OSGPR116 [5] is on record as “produce a response”.

These data come from US7083933B1, “Methods for identification of modulators of OSGPR116 activity” (Prosidion Limited, priority 2003, dated 2006).
